# In patent publication EP0107907A2, “Improvements in or relating to immunomodulating agents” (ELI LILLY AND COMPANY, priority 1982, dated 1984):
# Marks after values point to notes of the source that are not given here.
# What was measured:
# [1] = test system: Listeria monocytogenes EGD; assay: Protection of mice by pretreatment against lethal Listeria monocytogenes infection; format: in vivo, CD1 mice; settings: for Average Survival Time: survivors at 14 days given 15 day survival time;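 on Percent Survivors: survivors counted daily for 14 days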
# Method: In the test CD1 mice weighing 18-20 g were pretreated parenterally with the test compound 5, 3, and 1 days before intravenous infection in the lateral tail vein with 0.1 ml containing 5 x 10^5 viable cells of Listeria monocytogenes EGD. Test compound was solubilized in pyrogen-free water and administered intraperitoneally in 0.25 ml of the solution. Ten mice each were used for each concentration tested. Ten control mice were treated intraperitoneally at 5, 3, and 1-days preinfection with 0.25 ml of pyrogen-free water. The mice were caged, watered, and fed daily. […] All surviving animals at 14 days were given an arbitrary 15 day survival time. The average survival time was calculated for each group. Significant differences between the treated and control groups of mice were determined by the standard "T" test.
# C. albicans A26 = assay: Standard agar-diffusion test, antifungal; format: cell-based
# Method: In this test CD1 mice weighing 18-20 g were pretreated intraperitoneally or subcutaneously with test compound at 5, 3, and 1 days before intravenous infection with 5 x 10^6 viable cells of Candida albicans A26. Test compound was solubilized in pyrogen-free water and administered in 0.25 ml of solution. Ten mice were used for each concentration tested. Ten infected mice were treated intraperitoneally or subcutaneously at 5, 3, and 1 days preinfection with 0.25 ml of pyrogen-free water as controls. The immunomodulatory effects of the test compound were studied in X-irradiated mice exposed to 400R 24 hours preinfection, or mice treated intraperitoneally with 50 mg/kg cyclophosphamide 5, 3, and 1 days preinfection. The mice were caged, watered, and fed daily. The number of surviving mice was counted daily. Normal mice surviving 18 days post-infection were given an arbitrary 19-day survival time. X-irradiated or cyclophosphamide-treated mice surviving 12 days post-infection were given an arbitrary 13 day survival time. The average survival time was calculated for each group. Significant differences between treated and untreated groups of mice were determined by "T" test. Compound 1 was devoid of intrinsic in vitro antifungal activity against C. albicans A26 in a standard agar-diffusion test.
# Solubility = format: physicochemical
# Text: A53868 factor A is soluble in water and dimethyl sulfoxide and is insoluble in most organic solvents.
# Soluhility: soluble in water and dimethyl sulfoxide; insoluble in most organic solvents
smiles,measurement,setting,value
"C=C(CP(=O)(O)O)NC(=O)[C@H](CC(C)C)NC(=O)CN [Compound 1, N^2-glycyl-N-(1-methylene-2-phosphonoethyl)leucinamide]",Percent Survivors,"[1]; pretreatment 6.25 mg/kg i.p., day 1 post infection",100%
same,Percent Survivors,"[1]; pretreatment 6.25 mg/kg i.p., day 2 post infection",100%
same,Percent Survivors,"[1]; pretreatment 6.25 mg/kg i.p., day 3 post infection",100%
same,Percent Survivors,"[1]; pretreatment 6.25 mg/kg i.p., day 4 post infection",60%
same,Percent Survivors,"[1]; pretreatment 6.25 mg/kg i.p., day 5 post infection",50%
same,Percent Survivors,"[1]; pretreatment 6.25 mg/kg i.p., day 6 post infection",40%
same,Percent Survivors,"[1]; pretreatment 6.25 mg/kg i.p., day 7 post infection",30%
same,Percent Survivors,"[1]; pretreatment 6.25 mg/kg i.p., day 8 post infection",30%
same,Percent Survivors,"[1]; pretreatment 6.25 mg/kg i.p., day 9 post infection",30%
same,Percent Survivors,"[1]; pretreatment 6.25 mg/kg i.p., day 10 post infection",30%
same,Percent Survivors,"[1]; pretreatment 6.25 mg/kg i.p., day 11 post infection",30%
same,Percent Survivors,"[1]; pretreatment 6.25 mg/kg i.p., day 12 post infection",30%
same,Percent Survivors,"[1]; pretreatment 6.25 mg/kg i.p., day 13 post infection",30%
same,Percent Survivors,"[1]; pretreatment 6.25 mg/kg i.p., day 14 post infection",30%
same,Average Survival Time,[1]; pretreatment 6.25 mg/kg i.p.,7.9* Days
same,Percent Survivors,"[1]; pretreatment 12.5 mg/kg i.p., day 1 post infection",100%
same,Percent Survivors,"[1]; pretreatment 12.5 mg/kg i.p., day 2 post infection",100%
same,Percent Survivors,"[1]; pretreatment 12.5 mg/kg i.p., day 3 post infection",100%
same,Percent Survivors,"[1]; pretreatment 12.5 mg/kg i.p., day 4 post infection",80%
same,Percent Survivors,"[1]; pretreatment 12.5 mg/kg i.p., day 5 post infection",80%
same,Percent Survivors,"[1]; pretreatment 12.5 mg/kg i.p., day 6 post infection",70%
same,Percent Survivors,"[1]; pretreatment 12.5 mg/kg i.p., day 7 post infection",70%
same,Percent Survivors,"[1]; pretreatment 12.5 mg/kg i.p., day 8 post infection",70%
same,Percent Survivors,"[1]; pretreatment 12.5 mg/kg i.p., day 9 post infection",70%
same,Percent Survivors,"[1]; pretreatment 12.5 mg/kg i.p., day 10 post infection",70%
same,Percent Survivors,"[1]; pretreatment 12.5 mg/kg i.p., day 11 post infection",70%
same,Percent Survivors,"[1]; pretreatment 12.5 mg/kg i.p., day 12 post infection",70%
same,Percent Survivors,"[1]; pretreatment 12.5 mg/kg i.p., day 13 post infection",70%
same,Percent Survivors,"[1]; pretreatment 12.5 mg/kg i.p., day 14 post infection",70%
same,Percent Survivors,"[1]; pretreatment 12.5 mg/kg i.p., day 15 post infection",70%
same,Average Survival Time,[1]; pretreatment 12.5 mg/kg i.p.,11.9* Days
same,Percent Survivors,"[1]; pretreatment 25 mg/kg i.p., day 1 post infection",100%
same,Percent Survivors,"[1]; pretreatment 25 mg/kg i.p., day 2 post infection",100%
same,Percent Survivors,"[1]; pretreatment 25 mg/kg i.p., day 3 post infection",90%
same,Percent Survivors,"[1]; pretreatment 25 mg/kg i.p., day 4 post infection",70%
same,Percent Survivors,"[1]; pretreatment 25 mg/kg i.p., day 5 post infection",40%
same,Percent Survivors,"[1]; pretreatment 25 mg/kg i.p., day 6 post infection",40%
same,Percent Survivors,"[1]; pretreatment 25 mg/kg i.p., day 7 post infection",40%
same,Percent Survivors,"[1]; pretreatment 25 mg/kg i.p., day 8 post infection",40%
same,Percent Survivors,"[1]; pretreatment 25 mg/kg i.p., day 9 post infection",40%
same,Percent Survivors,"[1]; pretreatment 25 mg/kg i.p., day 10 post infection",40%
same,Percent Survivors,"[1]; pretreatment 25 mg/kg i.p., day 11 post infection",40%
same,Percent Survivors,"[1]; pretreatment 25 mg/kg i.p., day 12 post infection",40%
same,Percent Survivors,"[1]; pretreatment 25 mg/kg i.p., day 13 post infection",40%
same,Percent Survivors,"[1]; pretreatment 25 mg/kg i.p., day 14 post infection",40%
same,Percent Survivors,"[1]; pretreatment 25 mg/kg i.p., day 15 post infection",40%
same,Average Survival Time,[1]; pretreatment 25 mg/kg i.p.,8.6* Days
same,Percent Survivors,"[1]; pretreatment 50 mg/kg i.p., day 1 post infection",100%
same,Percent Survivors,"[1]; pretreatment 50 mg/kg i.p., day 2 post infection",100%
same,Percent Survivors,"[1]; pretreatment 50 mg/kg i.p., day 3 post infection",80%
same,Percent Survivors,"[1]; pretreatment 50 mg/kg i.p., day 4 post infection",70%
same,Percent Survivors,"[1]; pretreatment 50 mg/kg i.p., day 5 post infection",40%
same,Percent Survivors,"[1]; pretreatment 50 mg/kg i.p., day 6 post infection",30%
same,Percent Survivors,"[1]; pretreatment 50 mg/kg i.p., day 7 post infection",30%
same,Percent Survivors,"[1]; pretreatment 50 mg/kg i.p., day 8 post infection",30%
same,Percent Survivors,"[1]; pretreatment 50 mg/kg i.p., day 9 post infection",30%
same,Percent Survivors,"[1]; pretreatment 50 mg/kg i.p., day 10 post infection",30%
same,Percent Survivors,"[1]; pretreatment 50 mg/kg i.p., day 11 post infection",30%
same,Percent Survivors,"[1]; pretreatment 50 mg/kg i.p., day 12 post infection",30%
same,Percent Survivors,"[1]; pretreatment 50 mg/kg i.p., day 13 post infection",30%
same,Percent Survivors,"[1]; pretreatment 50 mg/kg i.p., day 14 post infection",30%
same,Percent Survivors,"[1]; pretreatment 50 mg/kg i.p., day 15 post infection",30%
same,Average Survival Time,[1]; pretreatment 50 mg/kg i.p.,7.6* Days
same,Percent Survivors,"[1]; pretreatment 100 mg/kg i.p., day 1 post infection",100%
same,Percent Survivors,"[1]; pretreatment 100 mg/kg i.p., day 2 post infection",100%
same,Percent Survivors,"[1]; pretreatment 100 mg/kg i.p., day 3 post infection",80%
same,Percent Survivors,"[1]; pretreatment 100 mg/kg i.p., day 4 post infection",50%
same,Percent Survivors,"[1]; pretreatment 100 mg/kg i.p., day 5 post infection",50%
same,Percent Survivors,"[1]; pretreatment 100 mg/kg i.p., day 6 post infection",50%
same,Percent Survivors,"[1]; pretreatment 100 mg/kg i.p., day 7 post infection",50%
same,Percent Survivors,"[1]; pretreatment 100 mg/kg i.p., day 8 post infection",50%
same,Percent Survivors,"[1]; pretreatment 100 mg/kg i.p., day 9 post infection",50%
same,Percent Survivors,"[1]; pretreatment 100 mg/kg i.p., day 10 post infection",50%
same,Percent Survivors,"[1]; pretreatment 100 mg/kg i.p., day 11 post infection",50%
same,Percent Survivors,"[1]; pretreatment 100 mg/kg i.p., day 12 post infection",50%
same,Percent Survivors,"[1]; pretreatment 100 mg/kg i.p., day 13 post infection",50%
same,Percent Survivors,"[1]; pretreatment 100 mg/kg i.p., day 14 post infection",50%
same,Percent Survivors,"[1]; pretreatment 100 mg/kg i.p., day 15 post infection",50%
same,Average Survival Time,[1]; pretreatment 100 mg/kg i.p.,9.3* Days
same,protecting mice against a lethal Listeria monocytogenes EGD infection,"[1]; pretreatment 5, 3, and 1 days before intravenous infection, intraperitoneally",highly effective
same,intrinsic in vitro antifungal activity,C. albicans A26,devoid
same,solubility in most organic solvents,Solubility; most organic solvents,insoluble
same,solubility in water and dimethyl sulfoxide,Solubility; water and dimethyl sulfoxide,soluble
